For data set [1], the target named is H4-stimulated PARP1 (human Parp-1) (Homo sapiens, UniProt P09874). Briefly: Inhibition of H4-stimulated PARP1 activation. Conditions: human Parp-1, NAD+. Format: biochemical.
A short description of data set [2]: Maximum kinetic aqueous solubility. Conditions: 2% DMSO/phosphate buffer pH 7.4; theoretical maximum 200 μM.
For data set [3] the following is noted: 90 min, pH 7.4.
For data set [4] the following is noted: ref Karpova et a., 2019; cited from earlier work.
Another data set deals with cancer cell lines. The following applies: ref Nieborowska-Skorska et al., 2019, cited from earlier work.
For data set [5] the following is noted: ref Karpova et a., 2019; cited from earlier work. This is another data set of the same source.
Data set [6] in a line: Stability in human liver microsomes. Format: in vitro ADME. The following applies: 1 μM, 37 °C.
Data set [7] in a line: Stability in mouse liver microsomes. The following applies: 1 μM, 37 °C. Format: in vitro ADME.
The subject of data set [8] is Nalm-6 isogenic RAD54−/− human leukemia cells. Format: cell-based. Conditions: clonogenic assay.
Where [9] appears, read: H4/PARP Inhibition IC50, histone H4-coated plates.
Where [10] appears, read: read-out: H4/PARP Inhibition IC50, histone H4-coated plates.

pIC50: −log10 of the molar value. Like-named read-outs stand apart in the source and are kept apart here. A value given as a limit tells only on which side of the number the result lay.

H4-stimulated PARP1 (human Parp-1), sequence (P09874 whole entry): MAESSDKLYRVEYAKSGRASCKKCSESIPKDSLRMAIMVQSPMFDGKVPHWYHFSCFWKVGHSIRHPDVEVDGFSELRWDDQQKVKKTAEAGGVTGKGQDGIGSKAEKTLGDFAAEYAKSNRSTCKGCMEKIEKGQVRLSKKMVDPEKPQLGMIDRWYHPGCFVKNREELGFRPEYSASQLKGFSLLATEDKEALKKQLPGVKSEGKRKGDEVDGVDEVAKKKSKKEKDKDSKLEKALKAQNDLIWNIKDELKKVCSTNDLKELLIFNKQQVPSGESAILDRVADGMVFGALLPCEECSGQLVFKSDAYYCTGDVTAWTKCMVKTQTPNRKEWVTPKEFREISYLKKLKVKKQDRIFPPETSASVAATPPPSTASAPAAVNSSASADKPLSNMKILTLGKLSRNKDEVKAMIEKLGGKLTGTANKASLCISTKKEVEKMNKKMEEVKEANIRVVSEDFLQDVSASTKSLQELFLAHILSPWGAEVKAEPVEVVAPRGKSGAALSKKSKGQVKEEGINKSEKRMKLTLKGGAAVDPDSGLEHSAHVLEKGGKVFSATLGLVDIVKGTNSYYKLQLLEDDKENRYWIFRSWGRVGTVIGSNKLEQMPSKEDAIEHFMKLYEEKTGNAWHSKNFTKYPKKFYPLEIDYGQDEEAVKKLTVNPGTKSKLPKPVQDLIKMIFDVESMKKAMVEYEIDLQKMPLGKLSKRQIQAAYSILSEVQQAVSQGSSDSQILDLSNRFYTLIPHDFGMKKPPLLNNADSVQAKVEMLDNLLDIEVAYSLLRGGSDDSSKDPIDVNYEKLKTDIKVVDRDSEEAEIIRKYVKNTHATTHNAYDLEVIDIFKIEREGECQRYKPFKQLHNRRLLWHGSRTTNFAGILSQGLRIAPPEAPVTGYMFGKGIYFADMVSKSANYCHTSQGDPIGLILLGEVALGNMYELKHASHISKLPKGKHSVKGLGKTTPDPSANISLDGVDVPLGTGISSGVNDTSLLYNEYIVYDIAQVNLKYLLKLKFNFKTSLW

`C[N+]1(CC(=O)OC2CCCCC2)CCCCC1` [Compound 16, 1-(2-(Cyclohexyloxy)-2-oxoethyl)-1-methylpiperidin-1-ium iodide]: the pIC50 in [1] (setting [9]) is 7.11. `C[N+]1(CC(=O)OC2CCCCCCCCCCC2)CCCCCC1` [Compound 3, 1-(2-(Cyclododecyloxy)-2-oxoethyl)-1-methylazepan-1-ium iodide] had a pIC50 in data set [1] (setting [9]) of 7.27. On to `CCC[N+]1(CC(=O)OC2CCCCCCCCCCC2)CCCCC1` [Compound 11, 1-(2-(Cyclododecyloxy)-2-oxoethyl)-1-(1-propyl)piperidin-1-ium iodide], for which the pIC50 in [1] (setting [9]) was 6.85.

In turn, `C[N+]1(CC(=O)OC2CCCCCCC2)CCCCC1` [Compound 15, 1-(2-(Cyclooctyloxy)-2-oxoethyl)-1-methylpiperidin-1-ium iodide] had a pIC50 in data set [1] (setting [9]) of 7.10. For the compound `CC1(C)CC[N+](C)(CC(=O)OC2CCCCCCCCCCC2)CC1.[I-]` [Compound 4, 1-(2-(Cyclododecyloxy)-2-oxoethyl)-1,4,4-trimethylpiperidin-1-ium iodide], in data set [2], the “Max. Aq. Solubility” value was found to be 95 µM. This compound also gave a pIC50 in data set [1] (setting [9]) of 7.34. `C[N+]1(CC(=O)OC2CCCCCCCCC2)CCCCC1` [Compound 14, 1-(2-(Cyclodecyloxy)-2-oxoethyl)-1-methylpiperidin-1-ium iodide] had a pIC50 in [1] (setting [9]) of 7.27. Consider `CC[N+]1(CC(=O)OC2CCCCCCCCCCC2)CCCCC1.[I-]` [Compound 10, 1-(2-(Cyclododecyloxy)-2-oxoethyl)-1-ethylpiperidin-1-ium iodide], for which, in data set [1] (setting [9]), the pIC50 was 6.76. Moreover, the “Max. Aq. Solubility” value in data set [3] worked out at 200 µM. Turning to `CN(C(=O)CO[N+]1(C)CCCCC1)C1CCCCCCCCCCC1` [Compound 18, 1-(2-(Cyclododecyl(methyl)amino)-2-oxoethoxy)-1-methylpiperidin-1ium iodide], the pIC50 in data set [1] (setting [10]) is 6.72. On to `C[N+]1(CC(=O)OC2CCCCCCCCCCC2)CCCCC1.[I-]` [Compound 1, 1-(2-(Cyclododecyloxy)-2-oxoethyl)-1-methylpiperidin-1-ium iodide], for which the “plasma protein binding (in words)” value in data set [4] is reported as “relatively high”. Further, the “effect in combination with olaparib (in words)” value with cancer cell lines (a number of cell lines) is recorded as “synergistic effect”. Besides, in the data set on cancer cell lines, the “potency in in vitro proliferation assays compared with olaparib (in words)” value is “more potent than olaparib”. The same compound gave a pIC50 in [1] (setting [9]) of 6.98. Besides, the “in vivo half-life (in words)” value in data set [5] is “longer than expected”. On to `CCCC[N+]1(CC(=O)OC2CCCCCCCCCCC2)CCCCC1` [Compound 12, 1-(2-(Cyclododecyloxy)-2-oxoethyl)-1-(1-butyl)piperidin-1-ium iodide], for which the pIC50 in data set [1] (setting [9]) is 6.87.

Turning to `CCCCC[N+]1(CC(=O)OC2CCCCCCCCCCC2)CCCCC1` [Compound 13, 1-(2-(Cyclododecyloxy)-2-oxoethyl)-1-(1-pentyl)piperidin-1-ium iodide], the pIC50 in [1] (setting [9]) was 6.59. The compound `C[N+]1(CC(=O)OC2CCCC2)CCCCC1.[I-]` [Compound 17, 1-(2-(Cyclopentyloxy)-2-oxoethyl)-1-methylpiperidin-1-ium iodide] showed a pIC50 in data set [1] (setting [9]) of 7.24. Moreover, the “Max. Aq. Solubility” value in [3] came out at 200 µM. For `C[N+]1(CC(=O)OC2CCCCCCCCCCC2)CCCC1.[I-]` [Compound 2], in data set [6], the “Liver Microsomal Stability (t1/2, min) Human + NADPH” value is recorded as under 2 min. Besides, the pIC50 in data set [1] (setting [10]) is 7.28. Besides, the “Liver Microsomal Stability (t1/2, min) Mouse + NADPH” value in [7] was determined as 3.8 min. Consider `C[N+]1(CC(=O)OC2CCCCCCCCCCC2)CCC(Cc2ccccc2)CC1` (stereo not drawn) [Compound 9, 4-(Benzyl)-1-(2-(cyclododecyloxy)-2-oxoethyl)-1-methylpiperidin-1ium iodide], for which the pIC50 in data set [1] (setting [9]) was 7.21. In data set [1] (setting [9]), `C[N+]1(CC(=O)OC2CCCCCCCCCCC2)CCNCC1.[I-]` [Compound 7, 1-(2-(Cyclododecyloxy)-2-oxoethyl)-1-methylpiperazinium iodide] gave a pIC50 of 6.33. Moreover, in data set [8], the “anti-clonogenic activity against BRCA-deficient NALM6 leukemia cells (in words)” value is reported as “potent anti-clonogenic activity”. Consider `CC(C)(C)OC(=O)N1CC[N+](C)(CC(=O)OC2CCCCCCCCCCC2)CC1.[I-]` [Compound 8, 4-(tert-Butoxycarbonyl)-1-(2-(cyclodedecyloxy)-2-oxoethyl)-1-methylpiperazin-1-ium iodide], for which the “Liver Microsomal Stability (t1/2, min) Human + NADPH” value in data set [6] is reported as under 2 min. Moreover, the pIC50 in data set [1] (setting [10]) is 7.25. The “Liver Microsomal Stability (t1/2, min) Mouse + NADPH” value in data set [7] is 4.1 min.

`C[N+]1(CC(=O)OC2CCCCCCCCCCC2)CCOCC1.[I-]` [Compound 5, 4-(2-(Cyclododecyloxy)-2-oxoethyl)-4-methylmorpholin-4-ium iodide] showed a pIC50 in [1] (setting [9]) of 7.46. Further, the “Max. Aq. Solubility” value in data set [3] worked out at 200 µM. Take `C[N+]1(CC(=O)OC2CCCCCCCCCCC2)CCSCC1.[I-]` [Compound 6, 4-(2-(Cyclododecyloxy)-2-oxoethyl)-4-methylthiomorphilin-4-ium iodide]: the “Liver Microsomal Stability (t1/2, min) Human + NADPH” value in [6] was under 2 min. Moreover, the pIC50 in data set [1] (setting [10]) was 6.81. In data set [7], the “Liver Microsomal Stability (t1/2, min) Mouse + NADPH” value is 4 min.
